According to publication PMC10146957, “Systematic Studies on Anti-Cancer Evaluation of Stilbene and Dibenzo[b,f]oxepine Derivatives” (Molecules, 2023):
Like-named read-outs stand apart in the source and are kept apart here.

How the values were obtained:
[1] = parameters: method as in PMID 29318022; details: generally well tolerated; cited from earlier work
HCT116 cells [2] = experiment: MTT cytotoxicity assay, HCT116 cells; type: cell-based, human; details: for cell viability (in words): 100 μM, 48 h of treatment; for IC50: Homo sapiens, HCT-116, 48 h, mean ± SEM
Protocol: (§1) Cells were cultured in a humidified incubator at 37 °C under 5% CO2. Human colorectal carcinoma (HCT116) cells were grown in McCoy’s 5A Medium (ATCC, Catalog No. 30-2007), human breast adenocarcinoma (MCF-7) and human dermal fibroblasts (HDF-A) cells were maintained in Dulbecco’s Modified Eagle’s Medium (DMEM, Sigma D5546) supplemented with 2 mM L-glutamine. Human embryonic kidney (HEK293) cell line was cultured in Dulbecco’s Modified Eagle’s Medium (DMEM, Gibco 31966-021). All culture media were supplemented with 1% Penicillin-Streptomycin (Sigma-Aldrich, P4333) and 10% fetal bovine serum (Gibco, 10270-106). Cells were sub-cultured at approximately 80–90% confluency to maintain the culture in the logarithmic growth phase.
(§2) Cells were seeded at a 96-well plate at the density of 7 × 10^3 cells per well and allowed to grow for 24 h. Afterward, the medium was aspirated and fresh medium was added (200 μL) with serial dilutions (100 − 10 μM) of tested compounds or DMSO at corresponding concentrations as a control. Following 48 h of incubation, the medium was replaced with phenol red-free medium (100 μL) containing MTT (3-(4,5-dimethylthiazol-2-yl)-2,5-diphenyl-2H-tetrazolium bromide, 0.5 mg/mL) and replaced in the incubator for 4 h. The formed formazan was dissolved in DMSO (100 μL) followed by incubation of the mixture at 37 °C for 10 min. The absorbance was measured at 540 nm. After blank subtraction, the half maximal effective concentration (EC50) was calculated by GraphPad Prism software (GraphPad Software Inc, San Diego, CA, USA).

normal cell lines = system: normal cell lines; parameters: method as in PMID 31865147; details: cited from earlier work
[3] = system: HeLa (cervical cancer) cells; parameters: method as in PMID 31865147; details: cited from earlier work
U87 (glioblastoma) cells = system: U87 (glioblastoma) cells; parameters: method as in PMID 31865147; details: cited from earlier work
[4] = MTT cytotoxicity assay, HCT116 cells; type: cell-based, human; details: human, HCT116 cells (human colorectal carcinoma), 100 μM, 48 h of treatment, read-out: cell viability
Protocol: as §1, §2

HEK293 cells = experiment: MTT cytotoxicity assay, HEK293 cells; type: cell-based; details: Homo sapiens, 48 h, mean ± SEM
Protocol: as §1, §2

HDF-A cells = experiment: MTT cytotoxicity assay, HDF-A cells; type: cell-based; details: Homo sapiens, HDFa
Protocol: as §1, §2

MCF-7 cells = experiment: MTT cytotoxicity assay, MCF-7 cells; type: cell-based; details: Homo sapiens, MCF7, 48 h, mean ± SEM
Protocol: as §1, §2

HCT116 cells [5] = experiment: Immunofluorescence of microtubular network (anti-α-tubulin 12G10); type: cell-based, human; details: 60 µm of compound, 24 h, anti-α-tubulin staining
Protocol: Cells were seeded on coverslips at a 24-well plate at a density of 5 × 10^4 cells per well and allowed to grow overnight. Next medium was replaced with a medium containing 60 μM solution of the selected compound and incubated for 24 h. Then, cells were fixed and permeabilized with 100% methanol at −20 °C for 15 min and subsequently washed three times with PBS at room temperature. After 1 h blocking with 3% BSA/PBS at 4 °C, slides were incubated with anti-alpha-tubulin 12G10 primary antibody (Developmental Studies Hybridoma Bank, University of Iowa, Iowa City, IA, USA) (diluted to 2 µg/mL in 3% BSA/PBS) overnight at 4 °C. After 3 × 10 min washing with PBS, slides were incubated with AlexaFluor 555-conjugated secondary antibody (diluted to 50 ng/mL in 3% BSA/PBS) (Thermo Fisher Scientific, Waltham, MA, USA, A31570) for 1 h at room temperature. After washing (3 × 10 min with PBS), slides were mounted in Fluoromount-G (Southern Biotech., Birmingham, AL, USA). Cells were recorded using Leica TCS SP8 (Leica Microsystems, Wetzlar, Germany) confocal microscope.

[6] = MTT, 48 h, mean ± SEM, read-out: HDF-A IC50

| Compound | melting point | IC50 (HCT116 cells [2]) | viability at 48 h, 100 µM [4] | IC50 (HEK293 cells) | other results |
| --- | --- | --- | --- | --- | --- |
| COc1ccc(/C=C\c2cc(OC)c(OC)c(OC)c2)cc1OP(=O)(O)O [CA4P/fosbretabulin, combretastatin A-4 phosphate] |  |  |  |  | side effect [1]: acute but transient hypertension |
| COc1cccc(O)c1/C=C/c1ccc([N+](=O)[O-])cc1[N+](=O)[O-] | 212 °C |  |  |  |  |
| COc1cccc(/C=C/c2ccc([N+](=O)[O-])cc2[N+](=O)[O-])c1O [Compound 1b, (E)-2-hydroxy-3-methoxy-2′,4′-dinitrostilbene] | 182 °C |  |  |  | cell viability (in words) (HCT116 cells [2]): only minimally affected |
| O=[N+]([O-])c1ccc2c(c1)C=Cc1ccc([N+](=O)[O-])cc1O2 | 216 °C |  |  |  |  |
| O=[N+]([O-])c1ccc2c(c1)Oc1ccc3ccccc3c1C=C2 [Compound 2h, 9-nitrobenzo[b]naphtho[1,2-f]oxepine] | 197 °C |  |  |  | activity in normal cell lines (normal cell lines): severe activity; anti-cancer activity compared with HTC116 cells [3]: significantly more active; anti-cancer activity compared with HTC116 cells (U87 (glioblastoma) cells): significantly more active |
| O=[N+]([O-])c1ccc2c(c1)Oc1cc(O)ccc1C=C2 [Compound 2i, 7-nitrodibenzo[b,f]oxepin-3-ol] | 164 °C | 55 ± 4 µM | < 30% | 88 ± 5 µM | IC50 (HDF-A cells; [6]): 93 ± 7 µM; IC50 (MCF-7 cells): 67 ± 6 µM |
| CC(=O)Oc1ccc2c(c1)Oc1cc(N)ccc1C=C2 [Compound 3j, 7-aminodibenzo[b,f]oxepin-3-yl acetate] | 145 °C |  |  |  |  |
| Nc1ccc2c(c1)Oc1ccc3ccccc3c1C=C2 [Compound 3h, benzo[b]naphtho[1,2-f]oxepin-9-amine] | 172 °C | 66 ± 2 µM | < 30% | 48 ± 3 µM | IC50 (HDF-A cells; predicted IC50, above the maximum concentration tested (100 μM), read-out: HDF-A IC50 (predicted)): > 100 µM |
| COc1cccc2c1Oc1cc([N+](=O)[O-])ccc1C=C2 [Compound 2b, 6-methoxy-3-nitrodibenzo[b,f]oxepine] | 184 °C |  |  |  | cell viability (in words) (HCT116 cells [2]): only minimally affected |
| COc1ccc(/C=C/c2ccc([N+](=O)[O-])cc2[N+](=O)[O-])c(O)c1 [Compound 1c, (E)-2-hydroxy-4-methoxy-2′,4′-dinitrostilbene] |  | 38 ± 5 µM | < 30% | 34 ± 4 µM | IC50 (HDF-A cells; [6]): 40 ± 4 µM; IC50 (MCF-7 cells): 43 ± 2 µM |
| COc1ccc2c(c1)Oc1cc([N+](=O)[O-])ccc1C=C2 [Compound 2c, 3-methoxy-7-nitrodibenzo[b,f]oxepine] | 189 °C |  |  |  |  |
| COc1ccc2c(c1)C=Cc1ccc([N+](=O)[O-])cc1O2 [Compound 2d, 2-methoxy-7-nitrodibenzo[b,f]oxepine] | 167 °C |  |  |  |  |
| COc1cc2c(cc1OC)Oc1cc([N+](=O)[O-])ccc1C=C2 [Compound 2f, 2,3-dimethoxy-7-nitrodibenzo[b,f]oxepine] |  |  |  |  | cell viability (in words) (HCT116 cells [2]): only minimally affected |
| COc1cc2c(cc1OC)Oc1cc(N)ccc1C=C2 [Compound 3f, 7,8-dimethoxydibenzo[b,f]oxepin-3-amine] |  |  |  |  | cell viability (in words) (HCT116 cells [2]): only minimally affected |
| COc1cccc2c1Oc1cc(N)ccc1C=C2 [Compound 3b, 6-methoxydibenzo[b,f]oxepin-3-amine] |  |  |  |  | cell viability (in words) (HCT116 cells [2]): only minimally affected |
| COc1cc(O)c(/C=C/c2ccc([N+](=O)[O-])cc2[N+](=O)[O-])cc1OC [Compound 1f, (E)-2-hydroxy-4,5-dimethoxy-2′,4′-dinitrostilbene] | 221 °C |  |  |  | cell viability (in words) (HCT116 cells [2]): only minimally affected |
| O=[N+]([O-])c1ccc(/C=C/c2ccc(O)cc2O)c([N+](=O)[O-])c1 [Compound 1i, (E)-2,4-dihydroxy-2′,4′-dinitrostilbene] | 201 °C | 52 ± 2 µM | < 30% | 54 ± 2 µM | IC50 (HDF-A cells; [6]): 41 ± 2 µM; IC50 (MCF-7 cells): 69 ± 3 µM |
| O=[N+]([O-])c1ccc(/C=C/c2ccccc2O)c([N+](=O)[O-])c1 [Compound 1a, (E)-2-hydroxy-2′,4′-dinitrostilbene] | 192 °C | 23 ± 1 µM | < 30% | 18 ± 1 µM | IC50 (HDF-A cells; [6]): 38 ± 1 µM; IC50 (MCF-7 cells): 36 ± 2 µM |
| COc1ccc2c(c1)C=Cc1ccc(N)cc1O2 [Compound 3d, 8-methoxydibenzo[b,f]oxepin-3-amine] | 158 °C |  |  |  |  |
| COc1ccc(O)c(/C=C/c2ccc([N+](=O)[O-])cc2[N+](=O)[O-])c1 [Compound 1d, (E)-2-hydroxy-5-methoxy-2′,4′-dinitrostilbene] | 168 °C | 18 ± 3 µM | < 30% | 33 ± 2 µM | IC50 (HDF-A cells; [6]): 40 ± 2 µM; IC50 (MCF-7 cells): 47 ± 1 µM; effect on microtubular network (HCT116 cells [5]): density of the microtubular network was decreased |
| O=[N+]([O-])c1ccc2c(c1)Oc1ccccc1C=C2 [Compound 2a, 3-nitrodibenzo[b,f]oxepine] | 156 °C |  |  |  |  |
| CC(=O)Oc1ccc2c(c1)Oc1cc([N+](=O)[O-])ccc1C=C2 [Compound 2j, 7-nitrodibenzo[b,f]oxepin-3-yl acetate] | 133 °C | 53 ± 3 µM | < 30% | 85 ± 4 µM | IC50 (MCF-7 cells): 36 ± 3 µM |
